The values that follow come from publication PMC8657723, “Novel Pituitary Actions of TAC4 Gene Products in Teleost” (International Journal of Molecular Sciences, 2021).

Entries after “also recorded” stand apart in the source; their conditions may differ. Ends that are not written are not given here.

In one assay the test system is NK2R. Put plainly: Functional activation of grass carp NK2R, NFAT-Luc reporter in HEK293T cells. The conditions noted are these: among the six NKR isoforms. Format: cell-based, grass carp (Ctenopharyngodon idellus). Here is the method:
To clarify the receptor selectivity of TAC4 gene products, a transfection experiment was conducted in HEK293T cells, and the fluorescent signal was detected by the firefly luciferase reporter gene detection kit. Firstly, the cDNA sequences of neurokinin receptor 1 isoforms a (NK1Ra), neurokinin receptor 1 isoforms b (NK1Rb), NK2R, neurokinin receptor 3 isoforms a1 (NK3Ra1), neurokinin receptor 3 isoforms a2 (NK3Ra2), and neurokinin receptor 3 isoforms b (NK3Rb) were isolated from grass carp pituitary, and the coding region of the six receptors were then subcloned into the eukaryotic expression vector pcDNA3.1. Secondly, the HEK293T cells were co-transfected with the plasmids of NFAT-Luc (Nuclear factor of activated T cells-luciferase), green fluorescent protein (GFP), and each pcDNA3.1-NKRs by using Lipofectamine 3000 (Thermo Fisher). The transfected HEK293T cells were incubated with various concentration HK-1 (1–10,000 nM), HK-2 (1–10,000 nM), or HK1-V7F (1–10,000 nM) for 24 h, respectively. Finally, the transfected cells were collected to detect the luciferase value according to the instructions of the firefly luciferase reporter gene detection kit. […]
Figure 2 Receptor selectivity of HK1, HK2, and HK1-V7F. […] Each point is determined quadruplicate and is given as a mean ± SEM. […]

Assay [1] relates to grass carp pituitary cells. Put plainly: Antagonist effect of HK1 on HK2-induced mRNA expression in grass carp pituitary cells. As to conditions: HK2 0.1 µM + HK1 1 µM and 10 µM, 24 h. Format: cell-based, grass carp (Ctenopharyngodon idellus). Here is the method: (§1) Figure 9 Phe to Val mutation in FXGLM motif in PRL, SLα, and UTS1 regulation by HK2 in grass carp pituitary cells. (A) Effects of HK1-V7F on PRL, SLα, and UTS1 mRNA expression in grass carp pituitary cells. In this experiment, grass carp pituitary cells were incubated for 24 h with increasing levels of HK1-V7F (0.1–1000 nM). (B) Suppressed effects of HK1 on HK2-induced PRL, SLα, and UTS1 mRNA expression in grass carp pituitary cells. Pituitary cells were challenged for 24 h with grass carp HK2 (0.1 µM) in the presence or absence of HK1 (1 µM) and HK1 (10 µM). In these experiment, Trizol method was used to extract total cell RNA, and RT-PCR was used to detect PRL, SLα, and UTS1 mRNA expression. Data presented are expressed as mean ± SEM, and the differences between groups were significant at p-value < 0.05 by labeling diverse letters.
Furthermore, to verify whether HK1 could function as an endogenous antagonist of NKRs, we examined the antagonist effect of HK1 on HK2-induced pituitary hormone genes expression.

The subject of another assay is six NKR isoforms. Put plainly: Functional activation of the six grass carp NKR isoforms, NFAT-Luc reporter in HEK293T cells. The assay is classed as cell-based, grass carp (Ctenopharyngodon idellus). The conditions noted are these: 24 h. The method, then: To clarify the receptor selectivity of TAC4 gene products, a transfection experiment was conducted in HEK293T cells, and the fluorescent signal was detected by the firefly luciferase reporter gene detection kit. Firstly, the cDNA sequences of neurokinin receptor 1 isoforms a (NK1Ra), neurokinin receptor 1 isoforms b (NK1Rb), NK2R, neurokinin receptor 3 isoforms a1 (NK3Ra1), neurokinin receptor 3 isoforms a2 (NK3Ra2), and neurokinin receptor 3 isoforms b (NK3Rb) were isolated from grass carp pituitary, and the coding region of the six receptors were then subcloned into the eukaryotic expression vector pcDNA3.1. Secondly, the HEK293T cells were co-transfected with the plasmids of NFAT-Luc (Nuclear factor of activated T cells-luciferase), green fluorescent protein (GFP), and each pcDNA3.1-NKRs by using Lipofectamine 3000 (Thermo Fisher). The transfected HEK293T cells were incubated with various concentration HK-1 (1–10,000 nM), HK-2 (1–10,000 nM), or HK1-V7F (1–10,000 nM) for 24 h, respectively. Finally, the transfected cells were collected to detect the luciferase value according to the instructions of the firefly luciferase reporter gene detection kit.
To clarify the receptor selectivity of HK1 and HK2 for the six NKRs, HEK-293T cell lines were established to stably express NK1Ra, NK1Rb, NK2R, NK3Rb, NK3Ra1, or NK3Ra2 were established, respectively. The cells were then used for transfection study with NFAT-Luc vectors, which was allowed for functional evaluation of the activation status of Ca^2+-dependent pathway.
Figure 2 Receptor selectivity of HK1, HK2, and HK1-V7F. The nuclear factor of activated T-cells (NFAT)-Luc reporter together with NK1Ra, NK1Rb, NK2R, NK3Rb, NK3Ra1, or NK3Ra2, were transiently transfected into HEK-293 cells, respectively. The cells were incubated with increasing levels of grass carp HK1, HK2, or HK1-V7F (0.1–1000 nM), respectively. The luciferase activities were normalized against renilla expression in the same sample to adjust for potential variations in transfection efficiency. Each point is determined quadruplicate and is given as a mean ± SEM. The groups denoted by different letters represent significant differences at p-value < 0.05 (ANOVA followed Dunnett’s test).

In assay [2] the test system is grass carp pituitary cells. Put plainly: RT-qPCR of pituitary gene mRNA expression after peptide treatment of grass carp pituitary cells. The assay is classed as cell-based, grass carp (Ctenopharyngodon idellus).
Source text: To further confirm the pituitary actions of HKs in grass carp, trypsin digestion method was used to prepare for grass carp primary cultured pituitary cells. […] After drug treatment, total RNA was extracted from adherent cells by Trizol, and then subjected to reverse transcription using HifairTM III 1st Strand cDNA Synthesis Kit (Yeasen, Shanghai, China). In the present study, β-actin was used as the internal reference gene, and then, the transcript levels of PRL, SLα, CART2, UTS1, and NMB1 were detected by using a ABI 7500 real-time PCR system (see Supplementary Table S2 for primer sequences and PCR condition). In addition, the plasmid DNA containing the gene coding sequence was serially diluted as a standard for data calibration.
In this study, RT-qPCR was used to detect mRNA expression for TAC4, NKRs, PRL, SLα, CART2, UTS1, SN2, and NMB1. In the ABI7500 software, the dynamic mRNA concentration detection range of the double standard curve is 10^5, and the correlation coefficient is >0.95. […] In the transfection experiment, the detected firefly luciferase activity was routinely normalized with the GFP activity expressed in the same well, expressed as the luciferin activity ratio Luc ratio. The data from four parallel experiments was presented as mean ± SEM in the figure. All the data were analyzed by ANOVA, and then subjected to Dunnett’s test in GraphPad Prism 7.0. The significant differences between groups were indicated by p < 0.05.
Figure 5 TAC4 gene products (HK1 and HK2) induced PRL (A) and SLα (B) mRNA expression in grass carp pituitary cells. Time course of grass carp HK1 (1 μM) and HK2 (1 μM) on PRL (A) and SLα (B) mRNA expression in grass carp pituitary cells. Dose-dependence of 24-h treatment with increasing levels of HK1 and HK2 (0.1–1000 nM) on PRL (A) and SLα (B) mRNA expression in grass carp pituitary cells. After drug treatment, the total RNA of the cells was extracted by the Trizol method, and the expression of various genes was detected by RT-PCR. Data presented were expressed as mean ± SEM, and the differences between groups were significant at p-value < 0.05 by labeling diverse letters.
Figure 6 TAC4 gene products (HK1 and HK2) induced CART2, NMB1, and UTS1 mRNA expression in grass carp pituitary cells. Time course of grass carp HK1 (1 μM) and HK2 (1 μM) on CART2 (A), NMB1 (B), and UTS1 (C) mRNA expression in grass carp pituitary cells. Dose-dependence of 24-h treatment with increasing levels of HK1 or HK2 (0.1–1000 nM) on CART2 (A), NMB1 (B), and UTS1 (C) mRNA expression in grass carp pituitary cells. After drug treatment, the total RNA of the cells was extracted by the Trizol method, and the expression of various genes were detected by RT-PCR. Data presented were expressed as mean ± SEM, and the differences between groups were significant at p-value < 0.05 by labeling diverse letters.
as §1

The next assay relates to mammals. The arrangement: method as in PMID 18337115. The conditions noted are these: cited from earlier work.
[3] abbreviates: 1 µM, 3 h, 6 h, 24 h, 48 h, RT-qPCR, β-actin.
Where [4] appears, read: 0.1–1000 nM, 24 h, RT-qPCR, β-actin.
[5] abbreviates: Figure 9B, 24 h static incubation, HK2 0.1 µM.

Take “TPGLQQVFGLM-NH2 [HK1, grass carp TAC4 mature peptide, …-NH2]”: in the assay on NK2R, the “NK2R activation (in words)” value is listed as “very weak activation”. In assay [1], the “suppression of HK2-induced PRL mRNA expression” value was “could not suppress; also recorded: could not block”, the “suppression of HK2-induced SLα mRNA expression” value is recorded as “could not suppress; also recorded: could not block” and the “suppression of HK2-induced UTS1 mRNA expression” value was “could not suppress; also recorded: could not block”. Besides, the “ED50, NFAT-Luc luciferase activity, NKR isoforms” value in the assay on six NKR isoforms (HEK-293T expressing each NKR) was over 10 µM. In addition, the “activation of the six NKR isoforms (in words)” value with six NKR isoforms (NFAT-Luc luciferase, HEK293T, NK1Ra, NK1Rb, NK2R, NK3Ra1, NK3Ra2, NK3Rb) is recorded as “very weak activation; also recorded: relatively low efficient stimulant; also recorded: could barely activate any NKR isoforms”. In assay [2] (setting [3]), the “CART2 mRNA expression, time course” value was “no effect”; the “NMB1 mRNA expression, time course” value was “no effect”; the “PRL mRNA expression, time course” value was “no effect”; the “SLα mRNA expression, time course” value was “no effect”. Besides, the “UTS1 mRNA expression, time course” value in assay [2] (setting [3]) is listed as “no effect”. In assay [2] (setting [4]), the “CART2 mRNA expression, dose-dependence” value is “ineffective”; the “NMB1 mRNA expression, dose-dependence” value is on record as “ineffective”; the “PRL mRNA expression, dose-dependence” value is “ineffective”; the “SLα mRNA expression, dose-dependence” value is recorded as “ineffective”. For the same substance, the “UTS1 mRNA expression, dose-dependence” value in assay [2] (setting [4]) is listed as “ineffective”. For the same substance, in assay [2] (setting [5]), the “PRL mRNA stimulation compared to HK2” value is “much weaker”, the “SLα mRNA stimulation compared to HK2” value is “much weaker” and the “UTS1 mRNA stimulation compared to HK2” value is “much weaker”. Moreover, the “pituitary genes' expression (summary)” value in assay [2] (grass carp pituitary cells, PRL, SLα, UTS1, NMB1, CART2) was “notably weaker; also recorded: ineffective for the six pituitary genes’ expression”.

As to “CRH: corticortropin-releasing hormone (SEEPPISLDLTFHLLREVLEMARAEQLAQQAHSNRKLMEII; ends and bridges not checked; UniProt P06850 154-194, looked up)”, in the assay on mammals, the “food intake and energy expenditure” value was “reduce food intake and induce energy expenditure”.
